Laboratory results: patent publication US8557872B2, “Compounds, isomer thereof, or pharmaceutically acceptable salts thereof as vanilloid receptor antagonist; and pharmaceutical compositions containing the same” (Amorepacific Corporation, priority 2008, dated 2013)

Biological target: T1, vanilloid receptor (Rattus norvegicus, UniProt O35433)
T1 construct: DRG nerve cells from the primary culture of 2 days were equilibrated by washing 4 times; endogenous in cells; host or cells: primary culture of dorsal root ganglion neurons from neonatal SD rats
Assay: 45Ca influx test (calcium uptake) in primary cultured DRG neurons, capsaicin 0.5 μM
Format: cell-based
Settings: comparison with comparative compounds F and G; read-out: IC50 value
Experimental: 1) Separation of Spinal Dorsal Root Ganglia (DRG) in Newborn Rats and Primary Culture Thereof
Neonatal (2-3 day old or younger than 2-3 day old) SD rats were put in ice for 5 minutes to anesthetize and disinfected with 70% ethanol. […] The DRG were incubated sequentially at 37° C. for 30 mins in 200 U/ml collagenase and 2.5 mg/ml trypsin, separately. The ganglia were washed twice with DME/F12 medium supplemented with 10% horse serum, triturated through a fire-polished Pasteur pipette, filtered through Nitex 80 membrane to obtain single cell suspension and the suspension was washed once more. This was subjected to centrifugation, then resuspended in cell culture medium at certain level of cell density. As the cell culture medium, DME/F12 medium supplemented with 10% horse serum was diluted with identical medium conditioned by C6 glioma cells 2 days on a confluent monolayer (1:1), and NGF (Nerve Growth Factor) was added to adjust 200 ng/ml as final concentration. After the cells were grown 2 days in medium where cytosine arabinoside (Ara-C, 100 μM) was added to kill dividing nonneuronal cells, medium was changed to one without Ara-C. The resuspended cells were plated at a density of 1500-2000 neurons/well onto Terasaki plates previously coated with 10 μg/ml poly-D-ornithine.
2) ^45Ca Influx Experiments
DRG nerve cells from the primary culture of 2 days were equilibrated by washing 4 times with HEPES (10 mM, pH 7.4)-buffered Ca^2+, Mg^2+-free HBSS (H-HBSS). The solution in each well was removed from the individual well. Medium containing the test compound plus capsaicin (final concentration 0.5 μM) and ^45Ca (final concentration 10 μCi/ml) in H-HBSS was added to each well and incubated at room temperature for 10 mins. Terasaki plates were washed five times with H-HBSS and dried at room temperature. To each well, 0.3% SDS (10 μl) was added to elute ^45Ca. After the addition of scintillation cocktail of into each well, the amount of ^45Ca influx into neuron was measured by counting radioactivity.

T1 sequence (O35433 whole entry): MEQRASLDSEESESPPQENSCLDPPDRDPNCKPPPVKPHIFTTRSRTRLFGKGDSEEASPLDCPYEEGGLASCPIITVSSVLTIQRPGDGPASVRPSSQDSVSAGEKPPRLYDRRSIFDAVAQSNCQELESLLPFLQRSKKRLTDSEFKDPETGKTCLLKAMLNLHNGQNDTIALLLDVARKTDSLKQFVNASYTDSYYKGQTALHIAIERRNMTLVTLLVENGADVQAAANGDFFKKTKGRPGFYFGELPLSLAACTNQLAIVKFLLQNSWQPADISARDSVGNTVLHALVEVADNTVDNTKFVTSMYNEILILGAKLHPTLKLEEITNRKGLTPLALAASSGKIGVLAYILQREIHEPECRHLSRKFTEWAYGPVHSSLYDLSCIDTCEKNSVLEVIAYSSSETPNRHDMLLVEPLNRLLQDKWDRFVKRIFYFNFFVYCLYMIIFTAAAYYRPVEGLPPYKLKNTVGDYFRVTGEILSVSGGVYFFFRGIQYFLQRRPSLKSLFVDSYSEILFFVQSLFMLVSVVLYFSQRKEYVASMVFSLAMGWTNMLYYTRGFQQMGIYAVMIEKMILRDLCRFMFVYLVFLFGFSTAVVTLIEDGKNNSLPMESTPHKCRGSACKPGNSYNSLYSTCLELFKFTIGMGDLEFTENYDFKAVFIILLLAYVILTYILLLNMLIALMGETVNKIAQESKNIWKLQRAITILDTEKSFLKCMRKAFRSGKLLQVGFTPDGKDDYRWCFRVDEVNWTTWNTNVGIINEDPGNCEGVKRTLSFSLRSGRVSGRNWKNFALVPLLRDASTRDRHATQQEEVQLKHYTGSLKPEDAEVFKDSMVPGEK

Row | IC50 | SMILES
1 | 150 nM | C=Cc1cc(CNC(=O)/C=C/c2ccc(C(F)(F)F)cc2NCCC)cc(F)c1NS(C)(=O)=O [Example 12, N-(3-Fluoro-4-methanesulfonylamino-5-vinyl-benzyl)-3-(2-propylamino-4-trifluoromethyl-phenyl)-acrylamide]

Same assay, conditions: rat DRG neurons, capsaicin 0.5 μM, 45Ca; read-out: Antagonist Calcium Uptake Test (IC50)

Row | IC50 | SMILES
2 | 410 nM | CCCNc1cc(F)ccc1/C=C/C(=O)NCc1cc(F)c(NS(C)(=O)=O)c(F)c1 [Example 30]
3 | 380 nM | CCCOc1cc(C(F)(F)F)ccc1/C=C/C(=O)NCc1cc(F)c(NS(C)(=O)=O)c(F)c1 [Example 4, N-(3,5-Difluoro-4-methanesulfonylamino-benzyl)-3-(2-propoxy-4-trifluoromethyl-phenyl)-acrylamide]
4 | 190 nM | CCCNc1cc(C(F)(F)F)ccc1CCC(=O)N[C@H](C)c1cc(F)c(NS(C)(=O)=O)c(F)c1 [Example 55, (R)—N-[1-(3,5-difluoro-4-methanesulfonylamino-phenyl)-ethyl]-3-(2-propylamino-4-trifluoromethyl-phenyl)-propionamide]
5 | 1100 nM | CCCOc1cc(F)ccc1/C=C/C(=O)NCc1cc(F)c(NS(C)(=O)=O)c(F)c1 [Example 28, N-(3,5-Difluoro-4-methanesulfonylamino-benzyl)-3-(4-fluoro-2-propoxy-phenyl)-acrylamide]
6 | 350 nM | CCCNc1cc(C(F)(F)F)ccc1CCC(=O)NCc1cc(F)c(NS(C)(=O)=O)c(F)c1 [Example 56, N-(3,5-difluoro-4-methanesulfonylamino-benzyl)-3-(2-propylamino-4-trifluoromethyl-phenyl)-propionamide]
7 | 110 nM | CCNc1cc(F)ccc1/C=C/C(=O)N[C@H](C)c1cc(F)c(NS(C)(=O)=O)c(F)c1 [Example 42, (R)—N-[1-(3,5-Difluoro-4-methanesulfonylamino-phenyl)-ethyl]-3-(2-ethylamino-4-fluoro-phenyl)-acrylamide]
8 | 1700 nM | CCOc1cc(C(F)(F)F)ccc1/C=C/C(=O)N[C@H](CC)c1cc(F)c(NS(C)(=O)=O)c(F)c1 (stereo in doubt) [Example 37, N-[1-(3,5-Difluoro-4-methanesulfonylamino-phenyl)-propyl]-3-(2-ethoxy-4-trifluoromethyl-phenyl)-acrylamide]
9 | 65 nM | CCCCNc1cc(F)ccc1/C=C/C(=O)N[C@H](C)c1cc(F)c(NS(C)(=O)=O)c(F)c1 [Example 45, (R)-3-(2-Butylamino-4-fluoro-phenyl)-N-[1-(3,5-difluoro-4-methanesulfonylamino-phenyl)-ethyl]-acrylamide]
10 | 120 nM | CCCCNc1cc(C(F)(F)F)ccc1/C=C/C(=O)N[C@H](C)c1cc(F)c(NS(C)(=O)=O)c(F)c1 [Example 3, (R)-3-(2-Butylamino-4-trifluoromethyl-phenyl)-N-[1-(3,5-difluoro-4-methanesulfonylamino-phenyl)-ethyl]-acrylamide]
11 | 92 nM | C#Cc1cc(CNC(=O)/C=C/c2ccc(C(F)(F)F)cc2CCC)cc(F)c1NS(C)(=O)=O [Example 35, N-(3-Ethynyl-5-fluoro-4-methanesulfonylamino-benzyl)-3-(2-propyl-4-trifluoromethyl-phenyl)-acrylamide]

Row | SMILES | IC50
12 | CCCCOc1cc(F)ccc1/C=C/C(=O)NCc1cc(F)c(NS(C)(=O)=O)c(F)c1 [Example 34, 3-(2-Butoxy-4-fluoro-phenyl)-N-(3,5-difluoro-4-methanesulfonylamino-benzyl)-acrylamide] | 980 nM
13 | CCC(C)Oc1cc(F)ccc1/C=C/C(=O)NCc1cc(F)c(NS(C)(=O)=O)c(F)c1 (centres unmarked) [Example 41, 3-(2-sec-Butoxy-4-fluoro-phenyl)-N-(3,5-difluoro-4-methanesulfonylamino-benzyl)-acrylamide] | 550 nM
14 | CCC(C)Oc1cc(F)ccc1/C=C/C(=O)N[C@H](C)c1cc(F)c(NS(C)(=O)=O)c(F)c1 (stereo partly drawn) [Example 40, (R)-3-(2-sec-Butoxy-4-fluoro-phenyl)-N-[1-(3,5-difluoro-4-methanesulfonylamino-phenyl)-ethyl]-acrylamide] | 100 nM
